The source made the active and inactive calls.
Assays:
Assay type in all cases: functional, organism-based
Mus musculus [1] = test: Anti-NASH activity in CCl4-induced nonalcoholic steatohepatitis C57BL mouse assessed as reduction in liver index at 100 mg/kg
Mus musculus [2] = test: Anti-NASH activity in CCl4-induced nonalcoholic steatohepatitis C57BL mouse assessed as reduction in HYP content in liver at 100 mg/kg administered for 14 days; conditions: time 14.0 day
Mus musculus [3] = test: Anti-NASH activity in CCl4-induced nonalcoholic steatohepatitis C57BL mouse assessed as reduction in steatosis at 100 mg/kg by H and E staining based assay
Mus musculus [4] = test: Anti-NASH activity in CCl4-induced nonalcoholic steatohepatitis C57BL mouse assessed as reduction in liver ballooning degeneration at 100 mg/kg by H and E staining based assay
Mus musculus [5] = test: Anti-NASH activity in CCl4-induced nonalcoholic steatohepatitis C57BL mouse assessed as reduction in liver lobular inflammation at 100 mg/kg by H and E staining based assay
Mus musculus [6] = test: Anti-NASH activity in CCl4-induced nonalcoholic steatohepatitis C57BL mouse assessed as reduction in liver fibrosis at 100 mg/kg by sirius red staining based assay
Mus musculus [7] = test: Anti-NASH activity in CCl4-induced nonalcoholic steatohepatitis C57BL mouse at 100 mg/kg by Oil red-O staining based assay
Mus musculus [8] = test: Anti-NASH activity in CCl4-induced nonalcoholic steatohepatitis C57BL mouse assessed as reduction in serum ALT level at 100 mg/kg
Mus musculus [9] = test: Anti-NASH activity in CCl4-induced nonalcoholic steatohepatitis C57BL mouse assessed as reduction in serum AST level at 100 mg/kg
Mus musculus [10] = test: Anti-NASH activity in CCl4-induced nonalcoholic steatohepatitis C57BL mouse assessed as reduction in LDH level at 100 mg/kg
Mus musculus [11] = test: Anti-NASH activity in CCl4-induced nonalcoholic steatohepatitis C57BL mouse assessed as reduction in triglyceride level at 100 mg/kg administered for 14 days; conditions: time 14.0 day
Mus musculus [12] = test: Anti-NASH activity in CCl4-induced nonalcoholic steatohepatitis C57BL mouse assessed as reduction in total cholesterol level at 100 mg/kg administered for 14 days; conditions: time 14.0 day
Mus musculus [13] = test: Anti-NASH activity in CCl4-induced nonalcoholic steatohepatitis C57BL mouse assessed as reduction in malondialdehyde level at 100 mg/kg administered for 14 days; conditions: time 14.0 day
Mus musculus [14] = test: Anti-NASH activity in CCl4-induced nonalcoholic steatohepatitis C57BL mouse assessed as decrease in IL-2 expression at 100 mg/kg by flow cytometry; conditions: time 14.0 day
Mus musculus [15] = test: Anti-NASH activity in CCl4-induced nonalcoholic steatohepatitis C57BL mouse assessed as decrease in IL-17A expression at 100 mg/kg by flow cytometry; conditions: time 14.0 day
Mus musculus [16] = test: Anti-NASH activity in CCl4-induced nonalcoholic steatohepatitis C57BL mouse assessed as decrease in IFN expression at 100 mg/kg by flow cytometry; conditions: time 14.0 day
Mus musculus [17] = test: Anti-NASH activity in CCl4-induced nonalcoholic steatohepatitis C57BL mouse assessed as reduction in liver index at 60 mg/kg checked in presence of 30 to 100 mg/kg JBP485
Mus musculus [18] = test: Anti-NASH activity in CCl4-induced nonalcoholic steatohepatitis C57BL mouse assessed as reduction in liver index at 60 mg/kg
Mus musculus [19] = test: Anti-NASH activity in CCl4-induced nonalcoholic steatohepatitis C57BL mouse assessed as reduction in steatosis at 60 mg/kg checked in presence of 30 to 100 mg/kg JBP485 by H and E staining based assay
Mus musculus [20] = test: Anti-NASH activity in CCl4-induced nonalcoholic steatohepatitis C57BL mouse assessed as reduction in liver ballooning degeneration at 60 mg/kg checked in presence of 30 to 100 mg/kg JBP485 by H and E staining based assay
Mus musculus [21] = test: Anti-NASH activity in CCl4-induced nonalcoholic steatohepatitis C57BL mouse assessed as reduction in liver lobular inflammation at 60 mg/kg checked in presence of 30 to 100 mg/kg JBP485 by H and E staining based assay
Mus musculus [22] = test: Anti-NASH activity in CCl4-induced nonalcoholic steatohepatitis C57BL mouse assessed as reduction in liver fibrosis at 60 mg/kg checked in presence of 30 to 100 mg/kg JBP485 by sirius red staining based assay
Mus musculus [23] = test: Anti-NASH activity in CCl4-induced nonalcoholic steatohepatitis C57BL mouse at 60 mg/kg checked in presence of 30 to 100 mg/kg JBP485 by Oil red-O staining based assay
Mus musculus [24] = test: Anti-NASH activity in CCl4-induced nonalcoholic steatohepatitis C57BL mouse assessed as reduction in steatosis at 60 mg/kg by H and E staining based assay
Mus musculus [25] = test: Anti-NASH activity in CCl4-induced nonalcoholic steatohepatitis C57BL mouse assessed as reduction in liver ballooning degeneration at 60 mg/kg by H and E staining based assay
Mus musculus [26] = test: Anti-NASH activity in CCl4-induced nonalcoholic steatohepatitis C57BL mouse assessed as reduction in liver lobular inflammation at 60 mg/kg by H and E staining based assay
Mus musculus [27] = test: Anti-NASH activity in CCl4-induced nonalcoholic steatohepatitis C57BL mouse assessed as reduction in liver fibrosis at 60 mg/kg by sirius red staining based assay
Mus musculus [28] = test: Anti-NASH activity in CCl4-induced nonalcoholic steatohepatitis C57BL mouse at 60 mg/kg by Oil red-O staining based assay
Mus musculus [29] = test: Anti-NASH activity in CCl4-induced nonalcoholic steatohepatitis C57BL mouse assessed as reduction in serum ALT level at 60 mg/kg checked in presence of 30 to 100 mg/kg JBP485
Mus musculus [30] = test: Anti-NASH activity in CCl4-induced nonalcoholic steatohepatitis C57BL mouse assessed as reduction in serum AST level at 60 mg/kg checked in presence of 30 to 100 mg/kg JBP485
Mus musculus [31] = test: Anti-NASH activity in CCl4-induced nonalcoholic steatohepatitis C57BL mouse assessed as reduction in LDH level at 60 mg/kg checked in presence of JBP485
Mus musculus [32] = test: Anti-NASH activity in CCl4-induced nonalcoholic steatohepatitis C57BL mouse assessed as reduction in triglyceride level at 60 mg/kg
Mus musculus [33] = test: Anti-NASH activity in CCl4-induced nonalcoholic steatohepatitis C57BL mouse assessed as reduction in total cholesterol level at 60 mg/kg
Mus musculus [34] = test: Anti-NASH activity in CCl4-induced nonalcoholic steatohepatitis C57BL mouse assessed as reduction in triglyceride level at 60 mg/kg checked in presence of JBP485
Mus musculus [35] = test: Anti-NASH activity in CCl4-induced nonalcoholic steatohepatitis C57BL mouse assessed as reduction in total cholesterol level at 60 mg/kg checked in presence of JBP485
Mus musculus [36] = test: Anti-NASH activity in CCl4-induced nonalcoholic steatohepatitis C57BL mouse assessed as reduction in malondialdehyde level at 60 mg/kg
Mus musculus [37] = test: Anti-NASH activity in CCl4-induced nonalcoholic steatohepatitis C57BL mouse assessed as reduction in malondialdehyde level at 60 mg/kg checked in presence of JBP485
Mus musculus [38] = test: Anti-NASH activity in CCl4-induced nonalcoholic steatohepatitis C57BL mouse assessed as decrease in IL-2 expression at 60 mg/kg checked in presence of JBP485 by flow cytometry; conditions: time 14.0 day
Mus musculus [39] = test: Anti-NASH activity in CCl4-induced nonalcoholic steatohepatitis C57BL mouse assessed as decrease in IL-17A expression at 60 mg/kg checked in presence of JBP485 by flow cytometry; conditions: time 14.0 day
Mus musculus [40] = test: Anti-NASH activity in CCl4-induced nonalcoholic steatohepatitis C57BL mouse assessed as decrease in IFN expression at 60 mg/kg checked in presence of JBP485 by flow cytometry; conditions: time 14.0 day
Mus musculus [41] = test: Anti-NASH activity in CCl4-induced nonalcoholic steatohepatitis C57BL mouse assessed as reduction in liver index at 30 to 100 mg/kg checked in presence of 60 mg/kg vitamin E; conditions: dose 30-100 mg/kg
Mus musculus [42] = test: Anti-NASH activity in CCl4-induced nonalcoholic steatohepatitis C57BL mouse assessed as reduction in steatosis at 30 to 100 mg/kg checked in presence of vitamin E by H and E staining based assay; conditions: dose 30-100 mg/kg
Mus musculus [43] = test: Anti-NASH activity in CCl4-induced nonalcoholic steatohepatitis C57BL mouse assessed as reduction in liver ballooning degeneration at 30 to 100 mg/kg checked in presence of vitamin E by H and E staining based assay; conditions: dose 30-100 mg/kg
Mus musculus [44] = test: Anti-NASH activity in CCl4-induced nonalcoholic steatohepatitis C57BL mouse assessed as reduction in liver lobular inflammation at 30 to 100 mg/kg checked in presence of vitamin E by H and E staining based assay; conditions: dose 30-100 mg/kg
Mus musculus [45] = test: Anti-NASH activity in CCl4-induced nonalcoholic steatohepatitis C57BL mouse assessed as reduction in liver fibrosis at 30 to 100 mg/kg checked in presence of vitamin E by sirius red staining based assay; conditions: dose 30-100 mg/kg
Mus musculus [46] = test: Anti-NASH activity in CCl4-induced nonalcoholic steatohepatitis C57BL mouse at 30 to 100 mg/kg checked in presence of vitamin E by Oil red-O staining based assay; conditions: dose 30-100 mg/kg
Mus musculus [47] = test: Anti-NASH activity in CCl4-induced nonalcoholic steatohepatitis C57BL mouse assessed as reduction in serum ALT level at 30 to 100 mg/kg checked in presence of vitamin E; conditions: dose 30-100 mg/kg
Mus musculus [48] = test: Anti-NASH activity in CCl4-induced nonalcoholic steatohepatitis C57BL mouse assessed as reduction in serum AST level at 30 to 100 mg/kg checked in presence of vitamin E; conditions: dose 30-100 mg/kg
Mus musculus [49] = test: Anti-NASH activity in CCl4-induced nonalcoholic steatohepatitis C57BL mouse assessed as reduction in LDH level at 100 mg/kg checked in presence of vitamin E
Mus musculus [50] = test: Anti-NASH activity in CCl4-induced nonalcoholic steatohepatitis C57BL mouse assessed as reduction in triglyceride level at 30 mg/kg checked in presence of vitamin E
Mus musculus [51] = test: Anti-NASH activity in CCl4-induced nonalcoholic steatohepatitis C57BL mouse assessed as reduction in total cholesterol level at 30 mg/kg checked in presence of vitamin E
Mus musculus [52] = test: Anti-NASH activity in CCl4-induced nonalcoholic steatohepatitis C57BL mouse assessed as reduction in malondialdehyde level at 30 mg/kg checked in presence of vitamin E
Mus musculus [53] = test: Anti-NASH activity in CCl4-induced nonalcoholic steatohepatitis C57BL mouse assessed as decrease in IL-2 expression at 30 mg/kg checked in presence of vitamin E by flow cytometry; conditions: time 14.0 day
Mus musculus [54] = test: Anti-NASH activity in CCl4-induced nonalcoholic steatohepatitis C57BL mouse assessed as decrease in IL-17A expression at 30 mg/kg checked in presence of vitamin E by flow cytometry; conditions: time 14.0 day
Mus musculus [55] = test: Anti-NASH activity in CCl4-induced nonalcoholic steatohepatitis C57BL mouse assessed as decrease in IFN expression at 100 mg/kg checked in presence of vitamin E by flow cytometry; conditions: time 14.0 day

Measured: Activity

Cc1c(C)c2c(c(C)c1OC(=O)CCC(=O)O[C@@H]1C[C@H]3C(=O)N[C@@H](CO)C(=O)N3C1)CC[C@@](C)(CCC[C@H](C)CCC[C@H](C)CCCC(C)C)O2
active: Mus musculus [1] | Mus musculus [2] | Mus musculus [3] | Mus musculus [4] | Mus musculus [5] | Mus musculus [6] | Mus musculus [7] | Mus musculus [8] | Mus musculus [9] | Mus musculus [10] | Mus musculus [11] | Mus musculus [12] | Mus musculus [13] | Mus musculus [14] | Mus musculus [15] | Mus musculus [16]

VITAMIN E
active: Mus musculus [17] | Mus musculus [18] | Mus musculus [19] | Mus musculus [20] | Mus musculus [21] | Mus musculus [22] | Mus musculus [23] | Mus musculus [24] | Mus musculus [25] | Mus musculus [26] | Mus musculus [27] | Mus musculus [28] | Mus musculus [29] | Mus musculus [30] | Mus musculus [31] | Mus musculus [32] | Mus musculus [33] | Mus musculus [34] | Mus musculus [35] | Mus musculus [36] | Mus musculus [37] | Mus musculus [38] | Mus musculus [39] | Mus musculus [40]

O=C1N[C@@H](CO)C(=O)N2C[C@H](O)C[C@@H]12
active: Mus musculus [1] | Mus musculus [41] | Mus musculus [3] | Mus musculus [4] | Mus musculus [5] | Mus musculus [6] | Mus musculus [7] | Mus musculus [42] | Mus musculus [43] | Mus musculus [44] | Mus musculus [45] | Mus musculus [46] | Mus musculus [47] | Mus musculus [48] | Mus musculus [49] | Mus musculus [11] | Mus musculus [12] | Mus musculus [50] | Mus musculus [51] | Mus musculus [13] | Mus musculus [52] | Mus musculus [53] | Mus musculus [54] | Mus musculus [55]
